Data on 29 molecules can be found in US9303045B2, “5-HT3 receptor antagonists” (Takeda Pharmaceutical Company Limited, priority 2013, dated 2016).

The experiment concerns the target 5HT3a receptor expressed in HEK-293T cells (Homo sapiens (Human), UniProt P46098). Kind of experiment: Inhibition of Ca flux activity of 5HT3 in vitro assay. The class given is cell-based. Conditions: calcium flux, 5HT 216 nM, approximate values. The method in brief:
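HEK-293T cells transiently transfected with human 5HT3a, loaded 1 hour at 37° C with calcium dye in HBSS/20 mM HEPES, preincubated with compound (10^−7 to 10^−10, half-log) 10 minutes at room temperature.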

Structures are written as SMILES. Structures can show the parent of a compound that is named as a salt.

Sequence of 5HT3a receptor expressed in HEK-293T cells (P46098 24-478): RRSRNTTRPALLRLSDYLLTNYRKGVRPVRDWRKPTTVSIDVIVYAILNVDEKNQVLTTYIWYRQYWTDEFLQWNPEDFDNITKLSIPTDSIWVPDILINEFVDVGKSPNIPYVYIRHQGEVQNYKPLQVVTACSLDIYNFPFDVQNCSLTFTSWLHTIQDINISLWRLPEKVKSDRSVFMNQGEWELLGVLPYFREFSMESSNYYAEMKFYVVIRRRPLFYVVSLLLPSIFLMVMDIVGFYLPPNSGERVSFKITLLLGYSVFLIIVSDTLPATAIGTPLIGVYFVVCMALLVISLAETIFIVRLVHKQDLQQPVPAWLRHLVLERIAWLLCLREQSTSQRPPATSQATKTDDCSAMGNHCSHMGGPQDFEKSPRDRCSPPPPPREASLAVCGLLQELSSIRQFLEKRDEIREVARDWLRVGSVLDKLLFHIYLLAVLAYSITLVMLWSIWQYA

Regarding `CN1C2COCC1CC(NC(=O)c1cn(-c3cncnc3)c3ccccc13)C2` [Example 120, N-((1R,5S,7S)-9-methyl-3-oxa-9-azabicyclo[3.3.1]nonan-7-yl)-1-(pyrimidin-5-yl)-1H-indole-3-carboxamide, 2,2,2-trifluoroacetate], the IC50 was 0.39 nM.
For the molecule `CN1[C@@H]2COC[C@H]1CC(NC(=O)c1cn(-c3ncccn3)c3ccccc13)C2` (stereo partly drawn) [Example 122, N-((1R,5S,7S)-9-methyl-d3-3-oxa-9-azabicyclo[3.3.1]nonan-7-yl)-1-(pyrimidin-2-yl)-1H-indole-3-carboxamide, 2,2,2-trifluoroacetate], the half-inhibitory concentration (IC50) amounted to 1.01 nM.
Under `CN1[C@@H]2COC[C@H]1CC(NC(=O)c1cn(-c3cccnn3)c3ccccc13)C2` (stereo partly drawn) [Example 123, N-((1R,5S,7S)-9-methyl-d3-3-oxa-9-azabicyclo[3.3.1]nonan-7-yl)-1-(pyridazin-3-yl)-1H-indole-3-carboxamide, 2,2,2-trifluoroacetate] stands 0.28 nM.
Under `CN1[C@@H]2COC[C@H]1CC(NC(=O)c1nn(CC(F)(F)F)c3ccccc13)C2` (stereo partly drawn) [Example 126, N-((1R,5S,7S)-9-methyl-d3-3-oxa-9-azabicyclo[3.3.1]nonan-7-yl)-1-(2,2,2-trifluoroethyl)-1H-indazole-3-carboxamide, 2,2,2-trifluoroacetate] stands 0.86 nM.
To `CN1[C@@H]2COC[C@H]1CC(NC(=O)c1cn(CCF)c3ccccc13)C2` (stereo partly drawn) [Example 127, 1-(2-fluoroethyl)-N-((1R,5S,7S)-9-methyl-d3-3-oxa-9-azabicyclo[3.3.1]nonan-7-yl)-1H-indole-3-carboxamide, 2,2,2-trifluoroacetate] belongs 0.22 nM.
Regarding `O=C(OC1C[C@H]2COC[C@@H](C1)N2)c1cn(-c2nccs2)c2ccccc12` (stereo partly drawn) [Example 128, (1R,5S,7S)-3-oxa-9-azabicyclo[3.3.1]nonan-7-yl 1-(thiazol-2-yl)-1H-indole-3-carboxamide, 2,2,2-trifluoroacetate], the IC50 stood at 2.16 nM.
To `CN1[C@@H]2COC[C@H]1C[C@@H](NC(=O)c1cn(-c3cnccn3)c3ccccc13)C2` [Example 129, N-((1R,5S,7S)-9-methyl-3-oxa-9-azabicyclo[3.3.1]nonan-7-yl)-1-(pyrazin-2-yl)-1H-indole-3-carboxamide, di-2,2,2-trifluoroacetate] belongs 0.64 nM.
To `CN1[C@@H]2COC[C@H]1CC(NC(=O)c1cn(-c3cnccn3)c3ccccc13)C2` (stereo partly drawn) [Example 130, N-((1R,5S,7S)-9-methyl-d3-3-oxa-9-azabicyclo[3.3.1]nonan-7-yl)-1-(pyrazin-2-yl)-1H-indole-3-carboxamide] belongs 0.55 nM; to `CC(C)S(=O)(=O)n1cc(C(=O)O[C@H]2C[C@H]3COC[C@@H](C2)N3)c2ccccc21` [Example 131, (1R,5S,7S)-3-oxa-9-azabicyclo[3.3.1]nonan-7-yl 1-(isopropylsulfonyl)-1H-indole-3-carboxylate, 2,2,2-trifluoroacetate], 1.93 nM; to `CS(=O)(=O)n1cc(C(=O)O[C@H]2C[C@H]3COC[C@@H](C2)N3)c2cc(F)ccc21` [Example 132, (1R,5S,7S)-3-oxa-9-azabicyclo[3.3.1]nonan-7-yl 5-fluoro-1-(methylsulfonyl)-1H-indole-3-carboxylate, 2,2,2-trifluoroacetate], 2.3 nM.
Take `CCS(=O)(=O)n1cc(C(=O)OC2C[C@H]3COC[C@@H](C2)N3)c2ccccc21` (stereo partly drawn) [Example 133, (1R,5S,7S)-3-oxa-9-azabicyclo[3.3.1]nonan-7-yl 1-(ethylsulfonyl)-1H-indole-3-carboxylate, 2,2,2-trifluoroacetate]: the IC50 turned out to be 1.5 nM.
`O=C(OC1C[C@H]2COC[C@@H](C1)N2)c1cn(S(=O)(=O)C2CC2)c2ccccc12` (stereo partly drawn) [Example 134, (1R,5S,7S)-3-oxa-9-azabicyclo[3.3.1]nonan-7-yl 1-(cyclopropylsulfonyl)-1H-indole-3-carboxylate, 2,2,2-trifluoroacetate]: the 50% inhibitory concentration (IC50) stood at 1.99 nM.
`CC(C)CS(=O)(=O)n1cc(C(=O)OC2C[C@H]3COC[C@@H](C2)N3)c2ccccc21` (stereo partly drawn) [Example 135, (1R,5S,7S)-3-oxa-9-azabicyclo[3.3.1]nonan-7-yl 1-(isobutylsulfonyl)-1H-indole-3-carboxylate, 2,2,2-trifluoroacetate]: the IC50 is 11.7 nM.
As to `O=C(O[C@H]1C[C@H]2COC[C@@H](C1)N2)c1cn(-c2cccnn2)c2ccccc12` [Example 136, (1R,5S,7s)-3-oxa-9-azabicyclo[3.3.1]nonan-7-yl 1-(pyridazin-3-yl)-1H-indole-3-carboxylate, 2,2,2-trifluoroacetic acid salt], the concentration for half-maximal inhibition (IC50) was 0.914 nM.
To `O=C(OC1CC2COCC(C1)N2)c1cn(-c2cnccn2)c2ccccc12` [Example 141, (1R,5S,7s)-3-oxa-9-azabicyclo[3.3.1]nonan-7-yl 1-(pyrazin-2-yl)-1H-indole-3-carboxylate, 2,2,2-trifluoroacetic acid salt] belongs 1.12 nM.
Under `O=C(OC1CC2COCC(C1)N2)c1cn(-c2cnsc2)c2ccccc12` [Example 143, (1R,5S,7s)-3-oxa-9-azabicyclo[3.3.1]nonan-7-yl 1-(isothiazol-4-yl)-1H-indole-3-carboxylate, 2,2,2-trifluoroacetic acid salt] stands 0.415 nM; under `CN1[C@@H]2COC[C@H]1C[C@@H](NC(=O)c1cn(-c3cnsc3)c3ccccc13)C2` [Example 144, 1-(isothiazol-4-yl)-N-((1R,5S,7s)-9-methyl-3-oxa-9-azabicyclo[3.3.1]nonan-7-yl)-1H-indole-3-carboxamide, 2,2,2-trifluoroacetic acid salt], 0.61 nM.
Under `CN1[C@@H]2COC[C@H]1C[C@@H](NC(=O)c1cn(-c3nccs3)c3ncccc13)C2` [Example 146, N-((1R,5S,7s)-9-methyl-3-oxa-9-azabicyclo[3.3.1]nonan-7-yl)-1-(thiazol-2-yl)-1H-pyrrolo[2,3-b]pyridine-3-carboxamide, 2,2,2-trifluoroacetic acid salt] stands 0.702 nM; under `CN1[C@@H]2COC[C@H]1C[C@@H](NC(=O)c1cn(-c3cscn3)c3ncccc13)C2` [Example 147, N-((1R,5S,7s)-9-methyl-3-oxa-9-azabicyclo[3.3.1]nonan-7-yl)-1-(thiazol-4-yl)-1H-pyrrolo[2,3-b]pyridine-3-carboxamide, 2,2,2-trifluoroacetic acid salt], 0.4 nM.
Turning to `CN1C2COCC1CC(NC(=O)c1cn(-c3cncs3)c3ncccc13)C2` [Example 148, N-((1R,5S,7s)-9-methyl-3-oxa-9-azabicyclo[3.3.1]nonan-7-yl)-1-(thiazol-5-yl)-1H-pyrrolo[2,3-b]pyridine-3-carboxamide, 2,2,2-trifluoroacetic acid salt], the IC50 is 0.4 nM.
To `CN1C2COCC1CC(NC(=O)c1cn(-c3ccsn3)c3ccccc13)C2` [Example 153, 1-(isothiazol-3-yl)-N-((1R,5S,7s)-9-methyl-3-oxa-9-azabicyclo[3.3.1]nonan-7-yl)-1H-indole-3-carboxamide, 2,2,2-trifluoroacetic acid salt] belongs 0.87 nM; to `CN1[C@@H]2COC[C@H]1C[C@@H](NC(=O)c1cn(-c3cncn3C)c3ccccc13)C2` [Example 154, 1-(1-methyl-1H-imidazol-5-yl)-N-((1R,5S,7s)-9-methyl-3-oxa-9-azabicyclo[3.3.1]nonan-7-yl)-1H-indole-3-carboxamide], 0.328 nM.
Under `CN1C2COCC1CC(NC(=O)c1cn(-c3ccns3)c3ccccc13)C2` [Example 158, 1-(isothiazol-5-yl)-N-((1R,5S,7s)-9-methyl-3-oxa-9-azabicyclo[3.3.1]nonan-7-yl)-1H-indole-3-carboxamide, 2,2,2-trifluoroacetic acid salt] stands 1.36 nM; under `CN1C2COCC1CC(NC(=O)c1cn(CC#N)c3ccccc13)C2` [Example 159, 1-(cyanomethyl)-N-((1R,5S,7s)-9-methyl-3-oxa-9-azabicyclo[3.3.1]nonan-7-yl)-1H-indole-3-carboxamide, 2,2,2-trifluoroacetic acid salt], 0.298 nM.
Under `CN1C2COCC1CC(OC(=O)c1cn(CCF)c3ccc(C#N)cc13)C2` [Example 160, (1R,5S,7s)-9-methyl-3-oxa-9-azabicyclo[3.3.1]nonan-7-yl 5-cyano-1-(2-fluoroethyl)-1H-indole-3-carboxylate, 2,2,2-trifluoroacetic acid salt] stands 0.746 nM; under `CN1[C@@H]2COC[C@H]1C[C@@H](OC(=O)c1cn(-c3ccc(F)nn3)c3ccc(C#N)cc13)C2` [Example 161, 1R,5S,7s)-9-methyl-3-oxa-9-azabicyclo[3.3.1]nonan-7-yl 5-cyano-1-(6-fluoropyridazin-3-yl)-1H-indole-3-carboxylate], more than 1000 nM; under `CN1C2COCC1CC(NC(=O)c1cn(-c3nccs3)c3ncc(F)cc13)C2` [Example 162, 5-fluoro-N-((1R,5S,7s)-9-methyl-3-oxa-9-azabicyclo[3.3.1]nonan-7-yl)-1-(thiazol-2-yl)-1H-pyrrolo[2,3-b]pyridine-3-carboxamide, 2,2,2-trifluoroacetic acid salt], 1.81 nM.
For `CN1C2COCC1CC(NC(=O)c1cn(-c3cscn3)c3ncc(F)cc13)C2` [Example 163, 5-fluoro-N-((1R,5S,7s)-9-methyl-3-oxa-9-azabicyclo[3.3.1]nonan-7-yl)-1-(thiazol-4-yl)-1H-pyrrolo[2,3-b]pyridine-3-carboxamide, 2,2,2-trifluoroacetic acid salt], the IC50 worked out at 1.81 nM.
For the molecule `CN1C2COCC1CC(NC(=O)c1cn(-c3cncs3)c3ncc(F)cc13)C2` [Example 164, 5-fluoro-N-((1R,5S,7s)-9-methyl-3-oxa-9-azabicyclo[3.3.1]nonan-7-yl)-1-(thiazol-5-yl)-1H-pyrrolo[2,3-b]pyridine-3-carboxamide, 2,2,2-trifluoroacetic acid salt], the IC50 is 1.18 nM.
